One series relates to KMS11. The series is described as follows: cells. The series is classed as cell-based. The settings on record: Homo sapiens, KMS-11, read-out: IC50 (in vitro toxicity).
Another series relates to PC3. The series is described as follows: cells. To be noted: Homo sapiens, PC-3, read-out: IC50 (in vitro toxicity). The series is classed as cell-based.
A further series has as its system L363. The series is described as follows: cells. In kind it is cell-based. To be noted: Homo sapiens, L-363, read-out: IC50 (in vitro toxicity).
For the next series, the system named is Raji. Description: cells. In kind it is cell-based. To be noted: Homo sapiens, read-out: IC50 (in vitro toxicity).
For another series, the system named is U266. Description: Orthotopic multiple myeloma study. The settings on record: mouse, in vivo. The method, then:
The efficacy of compounds provided by the present disclosure was evaluated using an orthotopic luciferase human multiple myeloma model—U266. Human multiple myeloma cells were IV injected (1×10^6 cells) into NSG mice (female, 5-6 weeks-old, Jackson Labs). Treatment began when the BLI reached a log-phase growth, at about 12 to 14 days after injection. Nine mice were assigned to each arm of the study. The mice were dosed with vehicle (IP, once weekly for 3 weeks), bortezomid (BTZ, 0.8 mg/kg, IP twice weekly for 3 weeks), compound (5) (5 mg/kg, IV once weekly for 3 weeks), or compound (5) (10 mg/kg, IV once weekly for 3 weeks). The tumor volume was measured using bioluminescence imaging.

A further series has as its system LN229. The series is described as follows: cells. To be noted: Homo sapiens, LN-229, read-out: IC50 (in vitro toxicity). In kind it is cell-based.
The test system of the next series is MCF7. The series is described as follows: In vitro cytotoxicity, MCF7. The series is classed as cell-based. To be noted: Homo sapiens, MCF7, read-out: IC50 (in vitro toxicity).
A further series has as its system RPMI8266. Description: cells. In kind it is cell-based. The settings on record: RPMI8266, read-out: IC50 (in vitro toxicity).
The test system of the next series is 799E. Description: In vitro cytotoxicity, 799E. The settings on record: read-out: IC50 (in vitro toxicity). In kind it is cell-based.
Another series has as its system Mia-PaCa2. Description: In vitro cytotoxicity, Mia-PaCa2. The series is classed as cell-based. To be noted: Homo sapiens, MIA PaCa-2, read-out: IC50 (in vitro toxicity).
A further series relates to 42MGBA. Description: cells. The series is classed as cell-based. The settings on record: read-out: IC50 (in vitro toxicity).
Another series deals with mouse melanoma cells. Description: Mouse melanoma efficacy in syngeneic mice.
The next series concerns HS5. Description: cells. The series is classed as cell-based. The settings on record: HS5, read-out: IC50 (in vitro toxicity).
In the next series the test system is U251 MG. Description: Orthotopic glioblastoma study (Example 84). To be noted: 5 mg/kg and 10 mg/kg IV once weekly for 4 weeks. In kind it is in vivo, mouse. On the procedure: The efficacy of compounds provided by the present disclosure was evaluated using an orthotopic luciferase human glioblastoma model—U251 MG. Human glioblastoma cells were intracolonically injected (3×10^5 cells/3 μL) into athymic mice (female, 4-5 weeks-old, nu/un homozygous). Treatment began when the BLI reached a log-phase growth, at about 14 days after injection. Ten mice were assigned to each arm of the study. The mice were dosed with vehicle (IP, once weekly for 4 weeks), compound (5) (5 mg/kg, IV once weekly for 4 weeks), compound (5) (10 mg/kg, IV once weekly for 4 weeks), compound (40) (10 mg/kg, IV once weekly for 4 weeks), or compound (50) (20 mg/kg, IV single dose). The tumor volume was measured using bioluminescence imaging.

In another series the test system is 794. The series is described as follows: cells. In kind it is cell-based. The settings on record: read-out: IC50 (in vitro toxicity).
For another series, the system named is MDA-MB-231. The series is described as follows: cells. In kind it is cell-based. The settings on record: Homo sapiens, MDA-MB-231, read-out: IC50 (in vitro toxicity).
In series [1] the test system is human bone marrow cells (erythroid and myeloid progenitors). Description: In vitro bone marrow toxicity, colony forming cell assays. The settings on record: 14 days in culture, methylcellulose media.

The results in this text go back to patent US10017459B2, “β-substituted β-amino acids and analogs as chemotherapeutic agents and uses thereof” (Quadriga Biosciences, Inc., priority 2015, dated 2018).

Some results are limits rather than exact numbers.

With `Cc1ccc(N(CCCl)CCCl)cc1C[C@H](N)CC(=O)O` [Compound 5, (3S)-3-Amino-4-[5-[bis(2-chloroethyl)amino]-2-methyl-phenyl]butanoic Acid], the IC50 was above 100 µM in the series on KMS11; below 100 µM in the series on PC3; above 100 µM in the series on L363; below 100 µM in the series on Raji; below 100 µM in the series on LN229; below 100 µM with MCF7. The IC50 in the series on RPMI8266 was above 100 µM; in the series on 799E, below 100 µM; in the series on Mia-PaCa2, below 100 µM; in the series on 42MGBA, below 100 µM; with HS5 it was above 100 µM; in the series with 794, below 100 µM. For the same compound, in the series with MDA-MB-231, the IC50 was below 100 µM. Also, in the series on U266, the “multiple myeloma tumor growth (bioluminescence imaging)” value was “dose-dependent suppression of multiple myeloma tumor growth”. Further, in the series with mouse melanoma cells (after dosing ended at 12 days), the “tumor growth after end of dosing” value was “Tumors began to grow”. For the same compound, the tumor growth entry in the series with mouse melanoma cells (dosed daily for 12 days) was “suppressed tumor growth”. Besides, the “white blood cell count” value in the series on mouse melanoma cells (during treatment) is recorded as “remained within the normal range”. Besides, in the series on U251 MG, the “glioblastoma tumor growth (bioluminescence imaging)” value is recorded as “dose-dependent suppression of glioblastoma tumor growth”. In series [1], the “toxicity to bone marrow progenitor cells (BFU-E, CFU-GM, Total CFC)” value was “melphalan is more toxic to bone marrow progenitor cells than compound (5)”.

Broadly, the IC50 is the concentration at which inhibition is half-maximal.
